Results from patent US6548528B2, “Pesticidal pyrazoles and derivatives” (Rhone-Poulenc Agro, priority 1996, dated 2003).

System: termites
Assay: Soil treatment at discrete locations around a house to be built, protection against termites (Example 1)
Type: in vivo
Conditions: for attack of termite observed: 1 year after building the house, 0.01 g/m^2 of soil at future corners and wall crossings, treated area 5 m per 10 m of perimeter
Description: In an area where termites are passing or traveling, plans for a house are made. The plans are that the house will have a rectangular shape of 15 m×10 m with 4 rooms at the lower level.
Compound (A) is actually put on the soil at a rate of 0.01 g/m^2 of the soil at the location of the future corners of the house and at the crossing of the walls corresponding to each room according to the following scheme: [drawing 2]
The treated area represents 5 m per 10 m of perimeter.

| SMILES | attack of termite observed | holes in parts of the walls, % of the volume (one year after building the house, similar experiment to Example 1) |
| --- | --- | --- |
| N#Cc1nn(-c2c(Cl)cc(C(F)(F)F)cc2Cl)c(N)c1[S+]([O-])C(F)(F)F (stereo not drawn) [Compound (A), 5-amino 1-(2,6-dichloro 4-trifluoromethylphenyl) 4-trifluoromethylsulfinyl 3-cyanopyrazole] | no attack of termite |  |
| CCOP(=S)(OCC)Oc1nc(Cl)c(Cl)cc1Cl [chlorpyrifos] | strong attack of termites | more than 10% |
